Assay results: ChEMBL document CHEMBL1201862, “PubChem BioAssay data set” (2004)
Calls of active or inactive are those of the source.

Tests used:
[1] = miR-122 activators in hepatoma reporter cells, dose response, cell-based, Huh7 psiCHECK-miR122, Renilla luciferase, cherry-picked (AID 651956); type: functional;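 also: huh7 hepatoma cells stably carrying a psiCHECK-2 miR-122 sensor plasmid; renilla luciferase signal reporting endogenous miR-122 activity after 48 h compound exposure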
[2] = biological target: Estrogen receptor (Homo sapiens, UniProt P03372);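 also: potency for inhibiting coactivator peptide recruitment to the receptor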
[3] = biological target: T1, Estrogen receptor beta (Homo sapiens, UniProt Q92731);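 also: recombinant ER-beta bound to coactivator SRC1 peptide in presence of estradiol agonist; inhibitors block coactivator peptide binding and lower the FRET signal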
[4] = biological target: T1, Estrogen receptor beta; assay: ERβ–SRC-3 coactivator interaction inhibitors, confirmation, orthogonal assay, biochemical, ELISA, streptavidin-HRP readout (AID 1060)
[5] = biological target: T2, Small ubiquitin-related modifier 1 (Homo sapiens, UniProt P63165); assay: inhibitors of SUMO1 peptide binding, dose response, biochemical, fluorescence polarization, uHTS hits (AID 624382); type: functional; conditions: read-out: IC50_Mean
[6] = biological target: T2, Small ubiquitin-related modifier 1; assay: inhibitors of SUMO1 partner interactions, dose response, biochemical, FRET (AID 624383); type: functional; conditions: read-out: IC50_Mean
[7] = biological target: T3, Scavenger receptor class B member 1 (Mus musculus, UniProt Q61009); assay: inhibitors of SR-BI dependent HDL uptake, dose response, ldlA[mSR-BI] CHO cells, fluorescence plate reader, dry powder, set 9 (AID 623880); type: functional, cell-based
T3 sequence (Q61009 whole entry): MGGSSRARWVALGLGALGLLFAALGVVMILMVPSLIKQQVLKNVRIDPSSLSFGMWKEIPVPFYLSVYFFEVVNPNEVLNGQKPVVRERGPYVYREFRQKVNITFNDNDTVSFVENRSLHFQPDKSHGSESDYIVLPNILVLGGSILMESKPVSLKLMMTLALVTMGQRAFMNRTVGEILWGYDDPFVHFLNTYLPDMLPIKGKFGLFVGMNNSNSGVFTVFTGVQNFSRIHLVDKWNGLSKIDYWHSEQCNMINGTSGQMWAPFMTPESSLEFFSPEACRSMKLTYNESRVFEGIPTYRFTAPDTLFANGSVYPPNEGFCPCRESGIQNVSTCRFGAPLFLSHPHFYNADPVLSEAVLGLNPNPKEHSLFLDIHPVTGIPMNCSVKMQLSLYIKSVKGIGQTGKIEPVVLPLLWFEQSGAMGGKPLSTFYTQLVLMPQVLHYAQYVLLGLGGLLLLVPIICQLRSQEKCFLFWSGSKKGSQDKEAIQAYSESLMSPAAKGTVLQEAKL

[8] = biological target: T3, Scavenger receptor class B member 1; assay: inhibitors of SR-BI-mediated HDL uptake, dose response, cell-based, ldlA[mSR-BI] CHO, DiI fluorescence, dry powder, set 10 (AID 624029); type: functional
[9] = biological target: T4, Short transient receptor potential channel 4 (Mus musculus, UniProt Q9QUQ5); assay: mouse TRPC4 channel inhibitors, dose response, cell-based, HEK293 TRPC4/mu-opioid, Fluo-4 calcium (AID 434942); type: functional;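 also: potency of inhibitors blocking the TRPC4 calcium response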
T4 sequence (Q9QUQ5 whole entry): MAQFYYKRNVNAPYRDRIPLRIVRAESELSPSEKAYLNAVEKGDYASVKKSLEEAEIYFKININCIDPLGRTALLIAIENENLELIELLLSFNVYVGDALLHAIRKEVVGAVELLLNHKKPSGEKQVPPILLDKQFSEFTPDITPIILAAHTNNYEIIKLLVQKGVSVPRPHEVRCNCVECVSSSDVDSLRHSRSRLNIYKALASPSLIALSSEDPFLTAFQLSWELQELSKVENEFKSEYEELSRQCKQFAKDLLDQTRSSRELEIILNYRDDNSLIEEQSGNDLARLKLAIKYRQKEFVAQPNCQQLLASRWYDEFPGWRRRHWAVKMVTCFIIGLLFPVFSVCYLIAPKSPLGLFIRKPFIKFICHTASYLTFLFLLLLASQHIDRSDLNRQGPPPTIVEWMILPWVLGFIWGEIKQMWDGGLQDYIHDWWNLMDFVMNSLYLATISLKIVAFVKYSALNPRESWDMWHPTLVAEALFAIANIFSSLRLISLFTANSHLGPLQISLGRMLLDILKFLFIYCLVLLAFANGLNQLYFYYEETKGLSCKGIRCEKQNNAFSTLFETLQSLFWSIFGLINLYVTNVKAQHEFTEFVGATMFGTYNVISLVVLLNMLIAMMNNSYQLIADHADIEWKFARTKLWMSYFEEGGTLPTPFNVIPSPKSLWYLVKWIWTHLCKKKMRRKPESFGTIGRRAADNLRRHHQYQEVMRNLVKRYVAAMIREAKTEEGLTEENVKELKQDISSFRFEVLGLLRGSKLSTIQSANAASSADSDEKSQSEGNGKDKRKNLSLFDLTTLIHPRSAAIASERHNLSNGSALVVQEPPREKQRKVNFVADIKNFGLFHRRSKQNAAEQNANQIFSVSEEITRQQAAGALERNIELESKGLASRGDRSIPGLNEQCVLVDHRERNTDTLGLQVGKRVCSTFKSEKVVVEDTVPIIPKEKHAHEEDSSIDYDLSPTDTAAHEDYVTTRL

[10] = biological target: T4, Short transient receptor potential channel 4; assay: mouse TRPC4 channel activators, dose response, cell-based, HEK293 TRPC4/mu-opioid, Fluo-4 calcium (AID 434937); type: functional
[11] = ARNT/TACC3 interaction disruptors, potency, confirmation, biochemical, AlphaScreen, cherry-picked samples (AID 651703); type: functional, Homo sapiens;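 also: His-tagged ARNT PAS-B domain paired with GST-TACC3 E629A dimer coactivator fragment; potency of inhibitors that break up the complex and lower AlphaScreen signal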
[12] = biological target: Heat shock protein HSP 90-alpha (Homo sapiens, UniProt P07900); type: functional, organism-based
[13] = Fluorescence-based cell-based high throughput dose response assay for inhibitors of the interaction of nucleotide-binding oligomerization domain containing 2 (NOD2) and the receptor-interacting serine-threonine kinase 2 (RIPK2).; type: functional; conditions: Homo sapiens
[14] = biological target: Beta Lactamase (Pseudomonas aeruginosa, UniProt Q932Y6); assay: beta-lactamase reporter inhibitor potency, dose response, artefact control for NOD2-RIPK2 interaction inhibitor project, BLA reporter cells, FRET fluorescence (AID 651552); type: functional, cell-based
[15] = HeLa cell cytotoxicity, dose response, cytotoxicity control for MgcRacGAP inhibitor project (AID 624300); type: functional
[16] = biological target: T5, Rac GTPase-activating protein 1 (Homo sapiens, UniProt Q9H0H5); assay: MgcRacGAP GTPase-activating activity inhibitors, confirmation, biochemical, ADP Hunter fluorescence, primary and confirmatory (AID 624330); type: functional
T5 sequence (Q9H0H5 whole entry): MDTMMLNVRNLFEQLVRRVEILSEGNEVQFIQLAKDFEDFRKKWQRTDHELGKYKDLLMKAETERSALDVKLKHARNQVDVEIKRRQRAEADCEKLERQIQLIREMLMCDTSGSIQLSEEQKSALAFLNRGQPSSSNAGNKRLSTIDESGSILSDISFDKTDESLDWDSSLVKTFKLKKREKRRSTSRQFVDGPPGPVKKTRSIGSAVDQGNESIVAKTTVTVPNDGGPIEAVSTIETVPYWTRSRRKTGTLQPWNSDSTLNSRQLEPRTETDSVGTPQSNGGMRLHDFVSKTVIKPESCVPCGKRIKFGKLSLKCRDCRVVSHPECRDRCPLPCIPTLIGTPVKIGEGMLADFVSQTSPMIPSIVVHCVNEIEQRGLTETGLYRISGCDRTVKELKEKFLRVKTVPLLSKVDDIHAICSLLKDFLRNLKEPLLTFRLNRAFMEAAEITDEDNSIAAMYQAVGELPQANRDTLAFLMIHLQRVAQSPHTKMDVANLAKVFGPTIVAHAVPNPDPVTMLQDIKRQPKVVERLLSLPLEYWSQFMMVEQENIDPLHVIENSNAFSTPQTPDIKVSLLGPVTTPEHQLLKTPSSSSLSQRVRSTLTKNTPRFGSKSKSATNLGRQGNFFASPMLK

[17] = biological target: Paired box protein Pax-8 (Homo sapiens, UniProt Q06710); assay: inhibitors of PAX8-driven TPO luciferase reporter, dose response, RMG-I cells, cherry-pick (AID 687027); type: functional, cell-based;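 also: luciferase reporter driven by Pax8 target thyroperoxidase promoter measured by SteadyGlo luminescence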
Sequence of Paired box protein Pax-8 (Q06710 whole entry): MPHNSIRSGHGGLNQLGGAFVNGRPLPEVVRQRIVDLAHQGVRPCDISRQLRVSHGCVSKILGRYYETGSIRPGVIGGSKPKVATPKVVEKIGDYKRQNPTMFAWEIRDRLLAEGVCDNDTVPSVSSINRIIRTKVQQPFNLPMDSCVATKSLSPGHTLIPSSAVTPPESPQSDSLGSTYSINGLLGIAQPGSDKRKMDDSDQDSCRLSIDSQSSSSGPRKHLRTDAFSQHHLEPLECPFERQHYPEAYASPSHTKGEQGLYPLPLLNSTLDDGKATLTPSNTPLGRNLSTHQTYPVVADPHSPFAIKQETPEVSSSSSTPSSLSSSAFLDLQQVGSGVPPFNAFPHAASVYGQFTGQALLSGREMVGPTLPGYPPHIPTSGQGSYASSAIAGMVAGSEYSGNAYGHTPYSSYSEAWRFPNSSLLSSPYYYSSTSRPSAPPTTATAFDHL

T1 sequence (Q92731 whole entry): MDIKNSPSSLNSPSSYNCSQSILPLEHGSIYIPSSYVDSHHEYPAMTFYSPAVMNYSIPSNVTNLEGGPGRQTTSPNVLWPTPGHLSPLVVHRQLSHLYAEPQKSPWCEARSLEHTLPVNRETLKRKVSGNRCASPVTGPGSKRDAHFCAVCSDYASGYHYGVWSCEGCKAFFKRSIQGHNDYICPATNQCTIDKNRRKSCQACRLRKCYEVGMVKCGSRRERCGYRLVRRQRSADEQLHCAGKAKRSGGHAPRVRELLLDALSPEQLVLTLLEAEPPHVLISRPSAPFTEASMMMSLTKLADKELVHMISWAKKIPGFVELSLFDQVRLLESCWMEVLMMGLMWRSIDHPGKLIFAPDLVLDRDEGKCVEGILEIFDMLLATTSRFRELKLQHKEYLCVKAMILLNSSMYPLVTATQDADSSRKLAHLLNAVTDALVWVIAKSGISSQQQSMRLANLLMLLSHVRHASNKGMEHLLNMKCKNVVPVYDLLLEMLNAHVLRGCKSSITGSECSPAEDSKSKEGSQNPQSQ
T2 sequence (P63165 whole entry): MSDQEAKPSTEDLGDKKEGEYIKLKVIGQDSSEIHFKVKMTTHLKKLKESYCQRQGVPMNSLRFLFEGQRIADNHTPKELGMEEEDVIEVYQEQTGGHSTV
Sequence of Estrogen receptor (P03372 whole entry): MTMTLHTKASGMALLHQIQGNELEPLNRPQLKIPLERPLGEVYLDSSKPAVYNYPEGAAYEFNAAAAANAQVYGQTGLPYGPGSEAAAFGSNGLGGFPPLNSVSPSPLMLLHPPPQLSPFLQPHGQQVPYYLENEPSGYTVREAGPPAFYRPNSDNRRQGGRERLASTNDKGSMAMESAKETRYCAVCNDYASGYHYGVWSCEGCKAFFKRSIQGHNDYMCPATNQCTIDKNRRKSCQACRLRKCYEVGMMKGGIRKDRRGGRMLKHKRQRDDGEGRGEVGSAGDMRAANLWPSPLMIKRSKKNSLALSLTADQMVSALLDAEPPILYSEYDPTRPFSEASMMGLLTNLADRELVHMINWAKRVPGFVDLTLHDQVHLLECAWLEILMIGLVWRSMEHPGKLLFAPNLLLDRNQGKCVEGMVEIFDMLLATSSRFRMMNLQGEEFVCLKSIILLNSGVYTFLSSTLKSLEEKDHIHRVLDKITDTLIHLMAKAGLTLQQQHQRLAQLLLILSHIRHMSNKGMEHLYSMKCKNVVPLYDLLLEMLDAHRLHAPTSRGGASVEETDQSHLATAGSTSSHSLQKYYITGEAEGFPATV
Sequence of Beta Lactamase (Q932Y6 whole entry): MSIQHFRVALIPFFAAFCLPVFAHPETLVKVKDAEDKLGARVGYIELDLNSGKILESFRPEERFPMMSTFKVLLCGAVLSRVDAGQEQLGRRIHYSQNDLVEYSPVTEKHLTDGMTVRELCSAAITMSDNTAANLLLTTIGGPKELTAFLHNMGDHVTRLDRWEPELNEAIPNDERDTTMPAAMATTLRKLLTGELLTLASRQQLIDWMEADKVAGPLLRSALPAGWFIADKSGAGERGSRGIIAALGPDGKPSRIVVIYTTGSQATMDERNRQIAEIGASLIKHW

With `CC(C)OCCCNC(=O)c1ccncc1` the AC50 [1] was 37.6 µM (active).

With `Cc1nc2cc(-c3ccsc3-n3c(C)ccc3C)nn2c(O)c1Cl` the IC50 [2] was 27.5 µM (active), the IC50 [3] was 7.66 µM (active) and the IC50 [4] was 1.53 µM (not active). The IC50 [5] was > 66.6 µM (inactive) and the IC50 [6] was 10.7 µM (active).

For `COc1c(NC(=O)C(=O)c2ccc(OCCN3CCOCC3)c3ccccc23)cc(C(C)(C)C)cc1NS(C)(=O)=O` [ITX-5061 FREE BASE], the AC50 [7] was 0.0114 µM (active) and the AC50 [8] was 0.146 µM (active).

For `COc1cccc(CNCc2ccccn2)c1OC`, the EC50 [9] was 0.299 µM (active), the EC50 [10] was 0.267 µM (active) and the AC50 [11] was 116 µM (active).

For `O=C1/C(=C\c2ccc(Cl)c(Cl)c2)CN(C(=O)CCN2CCOCC2)C/C1=C/c1ccc(Cl)c(Cl)c1`, the AC50 [12] was 2.98 µM (active), the IC50 [13] was 0.614 µM (active) and the IC50 [14] was 31.4 µM (inactive). The CC50 [15] was 16.9 µM (active), the IC50 [16] was 121 µM (active) and the AC50 [17] was 2.65 µM (active).
